Measurements: ChEMBL document CHEMBL3745645, “Synthesis, in vitro antitumor activity, dihydrofolate reductase inhibition, DNA intercalation and structure-activity relationship studies of 1,3,5-triazine analogues” (Bioorg Med Chem Lett, 2016)
Active and inactive are the calls of the source. No cut-off for these calls is given here.

Experiments:
TK-10 = assay: (§1) Cytotoxicity against human TK10 cells at 10 uM after 48 hrs by SRB assay; type: functional
MDA-MB-231 = assay: Cytotoxicity against human MDA-MB-231 cells at 10 uM after 48 hrs by SRB assay; type: functional
BT-549 = assay: (§2) Cytotoxicity against human BT549 cells at 10 uM after 48 hrs by SRB assay; type: functional
[1] = Cytotoxicity against human MOLT4 cells after 48 hrs by SRB assay; type: functional; settings: MOLT-4, 48 h, read-out: LC50 (the source's name)
A549 [2] = assay: Cytotoxicity against human A549 cells after 48 hrs by SRB assay; type: functional; settings: A549, 48 h, pooled result: one value given for 8 cell lines, strains, targets or settings
[3] = Cytotoxicity against human DU145 cells after 48 hrs by SRB assay; type: functional; settings: DU-145, 48 h, read-out: LC50 (the source's name)
MCF7 = assay: Cytotoxicity against human MCF7 cells after 48 hrs by SRB assay; type: functional; settings: MCF7, 48 h, pooled result: one value given for 6 cell lines, strains, targets or settings
Dihydrofolate reductase = biological target: T1, Dihydrofolate reductase (Homo sapiens, UniProt P00374); assay: Inhibition of human recombinant DHFR expressed in Escherichia coli by spectrophotometric analysis
T1 sequence (P00374 whole entry): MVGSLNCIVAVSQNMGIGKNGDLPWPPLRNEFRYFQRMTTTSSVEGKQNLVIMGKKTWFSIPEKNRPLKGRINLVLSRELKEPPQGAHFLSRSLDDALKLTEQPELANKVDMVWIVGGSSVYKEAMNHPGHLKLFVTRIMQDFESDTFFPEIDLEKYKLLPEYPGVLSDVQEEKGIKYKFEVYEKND

HL-60(TB) = assay: Cytotoxicity against human HL-60(TB) cells at 10 uM after 48 hrs by SRB assay; type: functional
K562 = assay: Cytotoxicity against human K562 cells at 10 uM after 48 hrs by SRB assay; type: functional; settings: K562, 48 h, read-out: GI
RPMI-8226 = assay: (§3) Cytotoxicity against human RPMI8226 cells at 10 uM after 48 hrs by SRB assay; type: functional
A549 [4] = assay: Cytotoxicity against human A549 cells at 10 uM after 48 hrs by SRB assay; type: functional; settings: for inhibition of growth at 10 µM: A549, 48 h, read-out: GI
NCI-H460 = assay: Cytotoxicity against human NCI-H460 cells at 10 uM after 48 hrs by SRB assay; type: functional; settings: for inhibition of growth at 10 µM: NCI-H460, 48 h, read-out: GI
COLO 205 = assay: Cytotoxicity against human COLO205 cells at 10 uM after 48 hrs by SRB assay; type: functional
HCC 2998 = assay: (§4) Cytotoxicity against human HCC2998 cells at 10 uM after 48 hrs by SRB assay; type: functional
HCT-15 = assay: Cytotoxicity against human HCT15 cells at 10 uM after 48 hrs by SRB assay; type: functional
HT-29 = assay: Cytotoxicity against human HT-29 cells at 10 uM after 48 hrs by SRB assay; type: functional
KM12 = assay: Cytotoxicity against human KM12 cells at 10 uM after 48 hrs by SRB assay; type: functional; settings: for inhibition of growth at 10 µM: KM12, 48 h, read-out: GI
SF-295 = assay: Cytotoxicity against human SF295 cells at 10 uM after 48 hrs by SRB assay; type: functional
[5] = Cytotoxicity against human SNB19 cells at 10 uM after 48 hrs by SRB assay; type: functional; settings: SNB-19, 48 h, read-out: GI
M14 = assay: Cytotoxicity against human M14 cells at 10 uM after 48 hrs by SRB assay; type: functional
MDA-MB-435 = assay: Cytotoxicity against human MDA-MB-435 cells at 10 uM after 48 hrs by SRB assay; type: functional; settings: for inhibition of growth at 10 µM: MDA-MB-435, 48 h, read-out: GI
SK-MEL-2 = assay: Cytotoxicity against human SK-MEL-2 cells at 10 uM after 48 hrs by SRB assay; type: functional
SK-MEL-28 = assay: Cytotoxicity against human SK-MEL-28 cells at 10 uM after 48 hrs by SRB assay; type: functional
UACC-257 = assay: Cytotoxicity against human UACC257 cells at 10 uM after 48 hrs by SRB assay; type: functional
UACC-62 = assay: Cytotoxicity against human UACC62 cells at 10 uM after 48 hrs by SRB assay; type: functional
[6] = (§5) Cytotoxicity against human OVCAR4 cells at 10 uM after 48 hrs by SRB assay; type: functional; settings: OVCAR-4, 48 h, read-out: GI
786-0 = assay: Cytotoxicity against human 786-0 cells at 10 uM after 48 hrs by SRB assay; type: functional
[7] = Cytotoxicity against human PC3 cells at 10 uM after 48 hrs by SRB assay; type: functional; settings: PC-3, 48 h, read-out: GI
[8] = Cytotoxicity against human DU145 cells at 10 uM after 48 hrs by SRB assay; type: functional; settings: DU-145, 48 h, read-out: GI
[9] = Cytotoxicity against human HOP92 cells at 10 uM after 48 hrs by SRB assay; type: functional; settings: HOP-92, 48 h, read-out: GI
[10] = Cytotoxicity against human IGROV1 cells at 10 uM after 48 hrs by SRB assay; type: functional; settings: IGROV-1, 48 h, read-out: GI
OVCAR-4 = assay: as §5; type: functional
[11] = Cytotoxicity against human NCI-ADR-RES cells at 10 uM after 48 hrs by SRB assay; type: functional; settings: read-out: GI
[12] = Cytotoxicity against human SKOV3 cells at 10 uM after 48 hrs by SRB assay; type: functional; settings: SK-OV-3, 48 h, read-out: GI
[13] = as §1; type: functional; settings: TK-10, 48 h, read-out: GI
[14] = Cytotoxicity against human UO31 cells at 10 uM after 48 hrs by SRB assay; type: functional; settings: UO-31, 48 h, read-out: GI
[15] = as §2; type: functional; settings: BT-549, 48 h, read-out: GI
[16] = as §3; type: functional; settings: RPMI-8226, 48 h, read-out: GI
NCI-H23 = assay: Cytotoxicity against human NCI-H23 cells at 10 uM after 48 hrs by SRB assay; type: functional; settings: NCI-H23, 48 h, read-out: GI
[17] = as §4; type: functional; settings: HCC 2998, 48 h, read-out: GI
[18] = Cytotoxicity against human SNB75 cells at 10 uM after 48 hrs by SRB assay; type: functional; settings: SNB-75, 48 h, read-out: GI
[19] = Cytotoxicity against human LOXIMVI cells at 10 uM after 48 hrs by SRB assay; type: functional; settings: LOX IMVI, read-out: GI

Question: For Cc1nc2cc(Nc3nc(Nc4ccc(F)cc4)nc(N4CCCC4)n3)ccc2n1Cc1ccccc1, which “growth inhibition (GI)” value (TK-10) is on record?
Answer: Active

Question: What about the “growth inhibition (GI)” value (MDA-MB-231) of the same compound?
Answer: Active

Question: What about the “growth inhibition (GI)” value (BT-549) of the same compound?
Answer: Active

Question: What about the CC50 [1] of the same compound?
Answer: > 100 µM

Question: And the GI50 (A549 [2])?
Answer: 1.82 µM

Question: And the LC50 (A549 [2])?
Answer: 14.5 µM

Question: What about the TGI (A549 [2]) of the same compound?
Answer: 4.02 µM

Question: What about the CC50 [3] of the same compound?
Answer: 6 µM

Question: What about the GI50 (MCF7) of the same compound?
Answer: 1.98 µM

Question: What about the LC50 (concentration killing 50% of cells) (MCF7) of the same compound?
Answer: 6.69 µM

Question: What about the TGI (MCF7) of the same compound?
Answer: 4.88 µM

Question: And the IC50 (Dihydrofolate reductase)?
Answer: 0.11 µM

Question: What about the “growth inhibition (GI)” value (HL-60(TB)) of the same compound?
Answer: Active

Question: What about the inhibition of growth at 10 µM (K562) of the same compound?
Answer: 100%

Question: What about the “growth inhibition (GI)” value (RPMI-8226) of the same compound?
Answer: Active

Question: And the “growth inhibition (GI)” value (A549 [4])?
Answer: Active

Question: And the “growth inhibition (GI)” value (NCI-H460)?
Answer: Active

Question: And the “growth inhibition (GI)” value (COLO 205)?
Answer: Active

Question: And the “growth inhibition (GI)” value (HCC 2998)?
Answer: Active

Question: What about the “growth inhibition (GI)” value (HCT-15) of the same compound?
Answer: Active

Question: What about the “growth inhibition (GI)” value (HT-29) of the same compound?
Answer: Active

Question: What about the “growth inhibition (GI)” value (KM12) of the same compound?
Answer: Active

Question: What about the “growth inhibition (GI)” value (SF-295) of the same compound?
Answer: Active

Question: What about the inhibition of growth at 10 µM [5] of the same compound?
Answer: 66.4%

Question: And the “growth inhibition (GI)” value (M14)?
Answer: Active

Question: And the “growth inhibition (GI)” value (MDA-MB-435)?
Answer: Active

Question: And the “growth inhibition (GI)” value (SK-MEL-2)?
Answer: Active

Question: And the “growth inhibition (GI)” value (SK-MEL-28)?
Answer: Active

Question: What about the “growth inhibition (GI)” value (UACC-257) of the same compound?
Answer: Active

Question: What about the “growth inhibition (GI)” value (UACC-62) of the same compound?
Answer: Active

Question: What about the inhibition of growth at 10 µM [6] of the same compound?
Answer: 95.2%

Question: And the “growth inhibition (GI)” value (786-0)?
Answer: Active

Question: What does the source list for Cc1nc2cc(Nc3nc(Nc4ccc(F)cc4)nc(N4CCN(C)CC4)n3)ccc2n1Cc1ccccc1?
Answer: growth inhibition (GI) (TK-10): Active; inhibition of growth at 10 µM [7]: 80.3%; inhibition of growth at 10 µM [8]: 83.3%; growth inhibition (GI) (MDA-MB-231): Active; growth inhibition (GI) (BT-549): Active; CC50 [1]: 8.47 µM; GI50 (A549 [2]): 1.84 µM; LC50 (A549 [2]): 7.52 µM; TGI (A549 [2]): 3.86 µM; CC50 [3]: 20.5 µM; GI50 (MCF7): 1.61 µM; LC50 (concentration killing 50% of cells) (MCF7): 7.54 µM; TGI (MCF7): 3.6 µM; IC50 (Dihydrofolate reductase): 0.31 µM; growth inhibition (GI) (HL-60(TB)): Active; inhibition of growth at 10 µM (K562): 99.6%; growth inhibition (GI) (RPMI-8226): Active; inhibition of growth at 10 µM (A549 [4]): 92.8%; inhibition of growth at 10 µM [9]: 97.5%; inhibition of growth at 10 µM (NCI-H460): 96.6%; growth inhibition (GI) (COLO 205): Active; growth inhibition (GI) (HCC 2998): Active; growth inhibition (GI) (HCT-15): Active; growth inhibition (GI) (HT-29): Active; inhibition of growth at 10 µM (KM12): 83%; growth inhibition (GI) (SF-295): Active; inhibition of growth at 10 µM [5]: 55.8%; growth inhibition (GI) (M14): Active; inhibition of growth at 10 µM (MDA-MB-435): 99.8%; growth inhibition (GI) (SK-MEL-2): Active; growth inhibition (GI) (SK-MEL-28): Active; growth inhibition (GI) (UACC-257): Active; growth inhibition (GI) (UACC-62): Active; inhibition of growth at 10 µM [10]: 75.4%; growth inhibition (GI) (OVCAR-4): Active; inhibition of growth at 10 µM [11]: 56.9%; inhibition of growth at 10 µM [12]: 31.3%; growth inhibition (GI) (786-0): Active

Question: What does the source list for Cc1nc2ccc(Nc3nc(NCCN4CCOCC4)nc(Nc4ccc(F)cc4)n3)cc2n1Cc1ccccc1?
Answer: inhibition of growth at 10 µM [13]: 39.4%; inhibition of growth at 10 µM [14]: 62.7%; inhibition of growth at 10 µM [7]: 28.5%; inhibition of growth at 10 µM [8]: 40.8%; inhibition of growth at 10 µM (MDA-MB-231; MDA-MB-231, 48 h, read-out: GI): 66.7%; inhibition of growth at 10 µM [15]: 50.1%; CC50 [1]: 55 µM; GI50 (A549 [2]): 3.21 µM; LC50 (A549 [2]): 38.5 µM; TGI (A549 [2]): 18.5 µM; CC50 [3]: 62.5 µM; GI50 (MCF7): 2.04 µM; LC50 (concentration killing 50% of cells) (MCF7): 20.6 µM; TGI (MCF7): 8.99 µM; IC50 (Dihydrofolate reductase): 0.002 µM; inhibition of growth at 10 µM (K562): 97%; inhibition of growth at 10 µM [16]: 96.9%; inhibition of growth at 10 µM (A549 [4]): 53.7%; inhibition of growth at 10 µM [9]: 69.7%; inhibition of growth at 10 µM (NCI-H23): 33%; inhibition of growth at 10 µM (NCI-H460): 70.6%; inhibition of growth at 10 µM [17]: 55.4%; growth inhibition (GI) (HCT-15): Active; growth inhibition (GI) (HT-29): Active; inhibition of growth at 10 µM (KM12): 56.6%; growth inhibition (GI) (SF-295): Active; inhibition of growth at 10 µM [5]: 21.3%; inhibition of growth at 10 µM [18]: 49.4%; inhibition of growth at 10 µM [19]: 94.3%; growth inhibition (GI) (M14): Active; inhibition of growth at 10 µM (MDA-MB-435): 47.8%; growth inhibition (GI) (SK-MEL-28): Active; growth inhibition (GI) (UACC-257): Active; growth inhibition (GI) (UACC-62): Active; inhibition of growth at 10 µM [10]: 31%; inhibition of growth at 10 µM [6]: 1.85%; inhibition of growth at 10 µM [12]: 21%; inhibition of growth at 10 µM (786-0; 786-0, 48 h, read-out: GI): 95.8%
